Where a name gives a salt, the structure may show the parent alone.

T1 sequence (O75762 whole entry): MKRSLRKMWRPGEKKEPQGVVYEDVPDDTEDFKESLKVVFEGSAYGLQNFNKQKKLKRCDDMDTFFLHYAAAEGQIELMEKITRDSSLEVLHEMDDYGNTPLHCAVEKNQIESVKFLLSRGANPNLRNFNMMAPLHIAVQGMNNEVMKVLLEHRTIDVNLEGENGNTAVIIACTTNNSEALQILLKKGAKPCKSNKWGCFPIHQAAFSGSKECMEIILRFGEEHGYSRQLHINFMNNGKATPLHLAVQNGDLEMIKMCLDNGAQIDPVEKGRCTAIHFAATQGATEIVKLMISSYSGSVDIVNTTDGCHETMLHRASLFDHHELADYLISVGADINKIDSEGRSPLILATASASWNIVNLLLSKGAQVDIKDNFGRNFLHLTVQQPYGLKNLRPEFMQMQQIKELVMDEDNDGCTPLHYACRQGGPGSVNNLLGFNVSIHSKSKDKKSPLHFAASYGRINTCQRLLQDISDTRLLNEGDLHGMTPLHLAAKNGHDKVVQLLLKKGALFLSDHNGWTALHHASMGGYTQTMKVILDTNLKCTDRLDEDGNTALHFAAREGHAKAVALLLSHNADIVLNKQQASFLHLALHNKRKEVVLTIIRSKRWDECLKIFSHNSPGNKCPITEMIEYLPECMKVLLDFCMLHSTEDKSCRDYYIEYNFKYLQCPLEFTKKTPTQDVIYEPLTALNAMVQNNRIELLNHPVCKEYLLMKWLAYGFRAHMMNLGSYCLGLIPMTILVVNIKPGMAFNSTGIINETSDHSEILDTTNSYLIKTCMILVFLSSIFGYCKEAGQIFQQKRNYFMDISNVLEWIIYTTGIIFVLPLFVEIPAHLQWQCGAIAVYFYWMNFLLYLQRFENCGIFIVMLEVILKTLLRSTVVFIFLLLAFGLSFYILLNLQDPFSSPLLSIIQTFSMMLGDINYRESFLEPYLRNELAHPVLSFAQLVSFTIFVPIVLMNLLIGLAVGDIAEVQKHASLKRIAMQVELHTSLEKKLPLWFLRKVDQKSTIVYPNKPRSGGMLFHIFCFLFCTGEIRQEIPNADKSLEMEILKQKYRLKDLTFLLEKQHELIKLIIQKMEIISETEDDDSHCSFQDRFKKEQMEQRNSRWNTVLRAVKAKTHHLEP

The experiment addresses T1, hTRPA1 (Homo sapiens, UniProt O75762).
T1 construct: host or cells: CHO-K1 Tet-On, Clone 20 (Chinese Hamster Ovary cells, inducible expression)
Nature of the experiment: IC50 determination, dose response calcium flux (FLIPR) assay, ChanTest hTRPA1-CHO stably transfected cell line. The conditions noted are these: CHO-K1 Tet-On hTRPA1 cells, 30' preincubation, agonist cinnamaldehyde final 100 uM. The class given is cell-based. On the procedure: IC50 Determination of Exemplified Compounds Dose Response Assay: ChanTest hTRPA1-CHO Stably Transfected Cell Line
CHO-K1 Tet-On_HOMSA_TRPA1_Clone—20
Growth Media for CHO-K1 Tet-On_HOMSA_TRPA1_Clone—20 • Ham's F-12 with 10% tetracycline-free FBS • 1× penicillin-streptomycin • 1× glutamax • 0.01 mg/ml Blasticidin • 0.40 mg/ml Zeocin • The cell line doubling rate was ˜15 hours. […] Experiments were run at 24 hours post induction.
Plating Conditions CHOK1/TRPA1 Cells: • Harvested cells with 0.025% trypsin/EDTA. • Resuspended cells in growth media without selection antibiotics. • Measured cell density and diluted to 2.4×10^5 cells/ml in media containing 1 ug/ml Doxycycline Plate 25 ul/well into 384 well black/clear tissue culture-treated plates. • Incubated overnight at 37° C.
Reagents: • Replacement Buffer: Hank's Balanced Salt Solution, 20 mM HEPES along with 0.005% BSA and 2× Probenecid • Dye Loading Buffer: Cal-3 NW Calcium dye was prepared by dissolving the contents of one vial with […] Hank's Balanced Salt Solution containing 20 mM HEPES. • Control compounds for CHOK1/TRPA1 cells: AP-18, stock 10 mM, prepare 3.5× compound dilution in a Compound Buffer (HBSS/20 mM HEPES/0.005% BSA)—final concentration 10 uM.
Preparation of Cinnamaldehyde (Agonist Addition):
• Specific gravity=1.046 gm/cc • 1.32 gm/1.046 gm/cc=1.26 ml of stock • Add 1.74 ml DMSO=3.3 M stock • Working solution 4.5× (final 100 uM in Compound Buffer: HBSS/20 mM HEPES/0.005% BSA)
Compounds dilutions were prepared from 5 or 10 mM stock (100% DMSO): • Adjustments of volumes and concentrations were made at time of titration to reflect desired final assay concentrations. • Compounds were tested at either 20 μM three folds dilution 11 steps out or 30 μM two folds dilution 11 steps out. • 3 μl of diluted compound were transferred into Weidmann 384-well plate in duplicates side-by-side.
Compound plates were resuspended with 100 ul of HBSS/20 mM HEPES/0.005% BSA buffer (Compound Buffer):
Growth media was removed from the cell plates (20 ul) and 20 ul of the Replacement Buffer was added followed by addition of 25 ul of diluted dye. All three steps were performed using a Plate Washer BioTek 407. The plates were then incubated for 30′ at RT.
After incubation, both the cell and compound plates were brought to the FLIPR and 20 ul of the diluted compounds/antagonist/bk were transferred to the cell plates by the FLIPR. Plates were then incubated for 30′ at room temperature. After 30′ incubation, plates were returned to the FLIPR and 20 ul of 4.5× Cinnamaldehyde was added to the cell plates. During the compound addition as well as agonist addition, fluorescence readings were taken simultaneously from all 384 wells of the cell plate every 1.5 seconds. Five readings were taken to establish a stable baseline, then 20 ul of sample was rapidly (30 ul/sec) and simultaneously added to each well of the cell plate. The fluorescence was continuously monitored before, during and after sample/agonist addition for a total elapsed time of 100 seconds (compound addition) and 120 seconds (agonist addition). Responses (increase in peak fluorescence) in each well following agonist addition was determined. The initial fluorescence reading from each well, prior to ligand stimulation, was used a zero baseline value for the data from that well.
For the compound `Cc1noc(C2CCCN(C[C@H](OC(=O)Nc3ccc(Cl)cc3)C(F)(F)F)C2)n1` (mixture of isomers) [Example 28, (4-Chlorophenyl)-carbamic acid (S)-2,2,2-trifluoro-1-[3-(3-methyl-[1,2,4]oxadiazol-5-yl)-piperidin-1-ylmethyl]-ethyl ester hydrochloride], the IC50 was 1850 nM.

In the case of `COc1cc(C2CCCN(C[C@H](OC(=O)Nc3ccc(Cl)cc3)C(F)(F)F)C2)ccc1F` (stereo partly drawn) [Example 31, (4-Chlorophenyl)-carbamic acid (S)-2,2,2-trifluoro-1-[3-(4-fluoro-3-methoxyphenyl)-piperidin-1-ylmethyl]-ethyl ester hydrochloride], the half-inhibitory concentration (IC50) was determined as 168 nM. For the compound `COCCOc1cc([C@H]2CCCN(C[C@H](OC(=O)Nc3ccc(Cl)cc3)C(F)(F)F)C2)ccc1F` [Example 35, (4-Chlorophenyl)-carbamic acid (S)-2,2,2-trifluoro-1-{(R)-3-[4-fluoro-3-(2-methoxyethoxy)-phenyl]-piperidin-1-ylmethyl}-ethyl ester hydrochloride], the half-inhibitory concentration (IC50) turned out to be 334 nM.

In the case of `O=C(Nc1ccc(Cl)cc1)OC(CN1CCCC(C(F)(F)F)C1)C(F)(F)F` (centres unmarked) [Example 15, (4-chlorophenyl)-carbamic acid 2,2,2-trifluoro-1-(3-trifluoromethylpiperidin-1-ylmethyl)-ethyl ester], the half-maximal inhibitory concentration (IC50) turned out to be 563 nM. Take `O=C(Nc1ccc(Cl)cc1)O[C@@H](CN1CCC(F)(F)CC1)C(F)(F)F` [Example 33, (4-Chlorophenyl)-carbamic acid (S)-1-(4,4-difluoropiperidin-1-ylmethyl)-2,2,2-trifluoroethyl ester hydrochloride]: the IC50 stood at 78.3 nM. In the case of `O=C(Nc1ccc(Cl)cc1)O[C@@H](CN1CCC[C@H](Oc2ccncc2)C1)C(F)(F)F` (racemic) [Example 22b, (4-chlorophenyl)-carbamic acid 2,2,2-trifluoro-1-[(S)-3-(pyridin-4-yloxy)-piperidin-1-ylmethyl]-ethyl ester], the concentration for half-maximal inhibition (IC50) was determined as 1760 nM. With `O=C(Nc1ccc(Cl)cc1)O[C@@H](CN1CCCC(Oc2ccc(Cl)cc2)C1)C(F)(F)F` (stereo partly drawn) [Example 45, (4-Chlorophenyl)-carbamic acid (S)-1-[3-(4-chlorophenoxy)-piperidin-1-ylmethyl]-2,2,2-trifluoroethyl ester hydrochloride], the half-maximal inhibitory concentration (IC50) was determined as 139 nM. Consider `COc1cccc(C2CCCN(C[C@H](OC(=O)Nc3ccc(F)cc3)C(F)(F)F)C2)c1` (stereo partly drawn) [Example 61, (4-Fluorophenyl)-carbamic acid (S)-2,2,2-trifluoro-1-[3-(3-methoxyphenyl)-piperidin-1-ylmethyl]-ethyl ester hydrochloride], for which the IC50 was 273 nM.

For the compound `COc1ccc(C2CCCN(C[C@H](OC(=O)Nc3ccc(Cl)cc3)C(F)(F)F)C2)cc1` (stereo partly drawn) [Example 38, (4-Chlorophenyl)-carbamic acid (S)-2,2,2-trifluoro-1-[3-(4-methoxyphenyl)-piperidin-1-ylmethyl]-ethyl ester], the IC50 was 622 nM. As to `O=C(C[C@@H](CN1CCC[C@H](c2cccc(C(F)(F)F)c2)C1)C(F)(F)F)Nc1ccc(Cl)cc1` (racemic) [Example 25, Racemic (S)—N-(4-Chlorophenyl)-4,4,4-trifluoro-3-[(R)-3-(3-trifluoromethylphenyl)-piperidin-1-ylmethyl]-butyramide], the IC50 worked out at 135 nM. For the compound `COCCCC1CCCN(CC(OC(=O)Nc2ccc(Cl)cc2)C(F)(F)F)C1` (centres unmarked) [Example 19, (4-Chlorophenyl)-carbamic acid 2,2,2-trifluoro-1-[3-(3-methoxypropyl)-piperidin-1-ylmethyl]-ethyl ester], the concentration for half-maximal inhibition (IC50) was 288 nM. In the case of `N#Cc1ccnc(OC2CCCN(C[C@H](OC(=O)Nc3ccc(Cl)cc3)C(F)(F)F)C2)c1` (stereo partly drawn) [Example 54, (4-Chlorophenyl)-carbamic acid (S)-1-[3-(4-cyanopyridin-2-yloxy)-piperidin-1-ylmethyl]-2,2,2-trifluoroethyl ester hydrochloride], the half-inhibitory concentration (IC50) was found to be 596 nM.

As to `CCOc1cccc(C2CCCN(C[C@H](OC(=O)Nc3ccc(Cl)cc3)C(F)(F)F)C2)c1` (stereo partly drawn) [Example 43, (4-Chlorophenyl)-carbamic acid (S)-1-[3-(3-ethoxyphenyl)-piperidin-1-ylmethyl]-2,2,2-trifluoroethyl ester hydrochloride], the IC50 came out at 298 nM.

`CS(=O)(=O)c1cccc(C2CCCN(C[C@H](OC(=O)Nc3ccc(Cl)cc3)C(F)(F)F)C2)c1` (stereo partly drawn) [Example 62, (4-Chlorophenyl)-carbamic acid (S)-2,2,2-trifluoro-1-[3-(3-methanesulfonylphenyl)-piperidin-1-ylmethyl]-ethyl ester hydrochloride]: the IC50 was 1160 nM. As to `O=C(Nc1ccc(Cl)cc1)OC(CN1CCCC(c2ccccc2)CC1)C(F)(F)F` (centres unmarked) [Example 27, (4-Chlorophenyl)-carbamic acid 2,2,2-trifluoro-1-(4-phenyl-azepan-1-ylmethyl)-ethyl ester], the IC50 was found to be 2260 nM. Regarding `O=C(Nc1ccc(Cl)cc1)OC(CN1CCCC(c2ccccc2)C1)C(F)(F)F` (centres unmarked) [Example 36, (4-Chlorophenyl)-carbamic acid 2,2,2-trifluoro-1-(3-phenylpiperidin-1-ylmethyl)-ethyl ester hydrochloride], the IC50 worked out at 625 nM. The value for `N#Cc1cccc(OC2CCCN(C[C@H](OC(=O)Nc3ccc(Cl)cc3)C(F)(F)F)C2)c1` (stereo partly drawn) [Example 47, (4-Chlorophenyl)-carbamic acid (S)-1-[3-(3-cyanophenoxy)-piperidin-1-ylmethyl]-2,2,2-trifluoroethyl ester hydrochloride] was 219 nM; that for `O=C(Nc1ccc(Cl)nc1)O[C@@H](CN1CCCC(c2cccc(C(F)(F)F)c2)C1)C(F)(F)F` (stereo partly drawn) [Example 68, (6-Chloropyridin-3-yl)-carbamic acid (S)-2,2,2-trifluoro-1-[3-(3-trifluoromethylphenyl)-piperidin-1-ylmethyl]-ethyl ester] was 192 nM; that for `O=C(Nc1ccc(Cl)cc1)O[C@@H](CN1CCCC(c2ccc(C(F)(F)F)nc2)C1)C(F)(F)F` (stereo partly drawn) [Example 57, (4-Chlorophenyl)-carbamic acid (S)-2,2,2-trifluoro-1-(6′-trifluoromethyl-3,4,5,6-tetrahydro-2H-[3,3′]bipyridinyl-1-ylmethyl)-ethyl ester hydrochloride] was 342 nM. Under `COc1ccccc1C1CCCN(CC(OC(=O)Nc2ccc(Cl)cc2)C(F)(F)F)C1` (centres unmarked) [Example 1, (4-Chlorophenyl)-carbamic acid 2,2,2-trifluoro-1-[3-(2-methoxyphenyl)-piperidin-1-ylmethyl]-ethyl ester] stands 4970 nM; under `O=C(Nc1ccc(Cl)cc1)O[C@@H](CN1CCCC(c2cccc(F)c2)C1)C(F)(F)F` (stereo partly drawn) [Example 41, (4-Chlorophenyl)-carbamic acid (S)-2,2,2-trifluoro-1-[3-(3-fluorophenyl)-piperidin-1-ylmethyl]-ethyl ester hydrochloride], 320 nM. With `COc1cccc(C2CCCN(C[C@H](OC(=O)Nc3ccc(Br)cc3)C(F)(F)F)C2)c1` (stereo partly drawn) [Example 60, (4-Bromophenyl)-carbamic acid (S)-2,2,2-trifluoro-1-[3-(3-methoxyphenyl)-piperidin-1-ylmethyl]-ethyl ester hydrochloride], the concentration for half-maximal inhibition (IC50) is 365 nM. For the compound `O=C(Nc1ccc(Cl)cc1)O[C@@H](CN1CCCC(c2ccc(F)cc2)C1)C(F)(F)F` (stereo partly drawn) [Example 42, (4-Chlorophenyl)-carbamic acid (S)-2,2,2-trifluoro-1-[3-(4-fluorophenyl)-piperidin-1-ylmethyl]-ethyl ester hydrochloride], the IC50 came out at 444 nM.

A word on the IC50: it is the point on the concentration scale where inhibition reaches its midpoint.
